Assay results published in US6559140B2 (Abbott Laboratories, priority 2000, dated 2003).

Target: H3 receptor (Rattus norvegicus, UniProt Q9QYN8)
Test: H3 receptor binding, (3H)-N-α-methylhistamine displacement in rat cortical membranes
Conditions: male Sprague-Dawley rat brain cortical membranes, 30 minutes at 25° C., Cheng-Prusoff, geometric mean values of 2-10 separate experiments
Method: Briefly, male Sprague-Dawley rat brain cortices were homogenized (1 g tissue/10 mL buffer) in 50 mM Tris-HCl/5 mM EDTA containing protease inhibitor cocktail (Calbiochem) using a polytron set at 20,500 rpm. Homogenates were centrifuged for 20 minutes at 40,000×g. The supernatant was decanted, and pellets were weighed. The pellet was resuspended by polytron homogenization in 40 mL 50 mM Tris-HCl/5 mM EDTA with protease inhibitors and centrifuged for 20 minutes at 40,000×g. […] Test compounds were added to the incubation mixtures prior to initiating the incubation assay by addition of the membranes. Thioperamide (3 μM) was used to determine nonspecific binding. Binding incubations were conducted for 30 minutes at 25° C. and terminated by addition of 2 mL of ice cold 50 mM Tris-HCl (H 7.7) and filtration through 0.3% polyethylenimine-soaked Unifilter plates (Packard). These filters were washed 4 additional times with 2 mL of ice-cold 50 mM Tris-HCl and dried for 1 hour. Radioactivity was determined using liquid scintillation counting techniques. Results were analyzed by Hill transformation and Ki values were determined using the Cheng-Prusoff equation.

H3 receptor, sequence (Q9QYN8 1-397 isoform Q9QYN8-3): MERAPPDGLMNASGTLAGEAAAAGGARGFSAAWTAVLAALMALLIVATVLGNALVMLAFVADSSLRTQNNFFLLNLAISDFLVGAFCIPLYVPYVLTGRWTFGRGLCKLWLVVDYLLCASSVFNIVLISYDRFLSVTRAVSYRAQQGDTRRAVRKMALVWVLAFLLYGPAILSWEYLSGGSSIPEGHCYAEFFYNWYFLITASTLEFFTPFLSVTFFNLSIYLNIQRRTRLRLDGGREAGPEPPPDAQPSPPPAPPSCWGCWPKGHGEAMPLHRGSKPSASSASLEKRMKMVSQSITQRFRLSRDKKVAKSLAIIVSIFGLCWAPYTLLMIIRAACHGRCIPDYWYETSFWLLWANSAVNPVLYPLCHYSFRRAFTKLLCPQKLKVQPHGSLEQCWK

Ki [nM] | Structure (SMILES)
11 | CC(C)CC(=O)N[C@H](C)C(=O)N1CCN(CCCOc2ccc(-c3noc(-c4ccccc4)n3)c(F)c2)CC1 [Example 165, N-[(1R)-2-(4-{3-[3-fluoro-4-(5-phenyl-1,2,4-oxadiazol-3-yl)phenoxy]propyl}-1-piperazinyl)-1-methyl-2-oxoethyl]-3-methylbutanamide]
6.79 | C[C@@H](N)C(=O)N1CCN(CCCOc2ccc(-c3noc(CC4CCCC4)n3)c(F)c2)CC1 [Example 168, (2R)-1-[4-(3-{4-[5-(cyclopentylmethyl)-1,2,4-oxadiazol-3-yl]-3-fluorophenoxy}propyl)-1-piperazinyl]-1-oxo-2-propanamine]
5.63 | C[C@@H](N)C(=O)N1CCCN(CCCOc2ccc(-c3noc(CC4CCCC4)n3)c(F)c2)CC1 [Example 169, (2R)-1-[4-(3-{4-[5-(cyclopentylmethyl)-1,2,4-oxadiazol-3-yl]-3-fluorophenoxy}propyl)-1,4-diazepan-1-yl]-1-oxo-2-propanamine]
8.74 | CCC(=O)N[C@H](C)C(=O)N1CCN(CCCOc2ccc(-c3noc(CC4CCCC4)n3)c(F)c2)CC1 [Example 170, N-{(1R)-2-[4-(3-{4-[5-(cyclopentylmethyl)-1,2,4-oxadiazol-3-yl]-3-fluorophenoxy}propyl)-1-piperazinyl]-1-methyl-2-oxoethyl}propanamide]
5.42 | C[C@@H](NC(=O)CC(C)(C)C)C(=O)N1CCN(CCCOc2ccc(-c3noc(CC4CCCC4)n3)c(F)c2)CC1 [Example 171, N-{(1R)-2-[4-(3-{4-[5-(cyclopentylmethyl)-1,2,4-oxadiazol-3-yl]-3-fluorophenoxy}propyl)-1-piperazinyl]-1-1-methyl-2-oxoethyl}-3,3-dimethylbutanamide]
1.22 | C[C@@H](NC(=O)CCN1CCOCC1)C(=O)N1CCN(CCCOc2ccc(-c3noc(CC4CCCC4)n3)c(F)c2)CC1 [Example 172, N-{(1R)-2-[4-(3-{4-[5-(cyclopentylmethyl)-1,2,4-oxadiazol-3-yl]-3-fluorophenoxy}propyl)-1-piperazinyl]-1-methyl-2-oxoethyl}-3-(4-morpholinyl)propanamide]
1.56 | Cc1ccc(C(=O)N[C@H](C)C(=O)N2CCN(CCCOc3ccc(-c4noc(CC5CCCC5)n4)c(F)c3)CC2)cc1 [Example 173, N-{(1R)-2-[4-(3-{4-[5-(cyclopentylmethyl)-1,2,4-oxadiazol-3-yl]-3-fluorophenoxy}propyl)-1-piperazinyl]-1-methyl-2-oxoethyl}-4-methylbenzamide]
0.81 | C[C@@H](NC(=O)c1ccc(F)cc1)C(=O)N1CCN(CCCOc2ccc(-c3noc(CC4CCCC4)n3)c(F)c2)CC1 [Example 174, N-{(1R)-2-[4-(3-{4-[5-(cyclopentylmethyl)-1,2,4-oxadiazol-3-yl]-3-fluorophenoxy}propyl)-1-piperazinyl]-1-methyl-2-oxoethyl}-4-fluorobenzamide]
1.88 | COc1ccc(C(=O)N[C@H](C)C(=O)N2CCN(CCCOc3ccc(-c4noc(CC5CCCC5)n4)c(F)c3)CC2)cc1 [Example 175, N-{(1R)-2-[4-(3-{4-[5-(cyclopentylmethyl)-1,2,4-oxadiazol-3-yl]-3-fluorophenoxy}propyl)-1-piperazinyl]-1-methyl-2-oxoethyl}-4-methoxybenzamide]
1.22 | C[C@@H](NC(=O)c1ccc(Cl)c(Cl)c1)C(=O)N1CCN(CCCOc2ccc(-c3noc(CC4CCCC4)n3)c(F)c2)CC1 [Example 176, 3,4-dichloro-N-{(1R)-2-[4-(3-{4-[5-(cyclopentylmethyl)-1,2,4-oxadiazol-3-yl]-3-fluorophenoxy}propyl)-1-piperazinyl]-1-methyl-2-oxoethyl}benzamide]
1.78 | CC(C)C(=O)N[C@H](C)C(=O)N1CCCN(CCCOc2ccc(-c3noc(CC4CCCC4)n3)c(F)c2)CC1 [Example 177, N-{(1R)-2-[4-(3-{4-[5-(cyclopentylmethyl)-1,2,4-oxadiazol-3-yl]-3-fluorophenoxy}propyl)-1,4-diazepan-1-yl]-1-methyl-2-oxoethyl}-2-methylpropanamide]
8.2 | C[C@@H](NC(=O)c1ccc(Cl)cc1)C(=O)N1CCCN(CCCOc2ccc(-c3noc(CC4CCCC4)n3)c(F)c2)CC1 [Example 178, 4-chloro-N-{(1R)-2-[4-(3-{4-[5-(cyclopentylmethyl)-1,2,4-oxadiazol-3-yl]-3-fluorophenoxy}propyl)-1,4-diazepan-1-yl]-1-methyl-2-oxoethyl}benzamide]
1.5 | C[C@@H](NC(=O)c1ccc(C#N)cc1)C(=O)N1CCCN(CCCOc2ccc(-c3noc(CC4CCCC4)n3)c(F)c2)CC1 [Example 179, 4′-cyano-N-{(1R)-2-[4-(3-{4-[5-(cyclopentylmethyl)-1,2,4-oxadiazol-3-yl]-3-fluorophenoxy}propyl)-1,4-diazepan-1-yl]-1-methyl-2-oxoethyl}benzamide]
2.37 | C[C@@H](NC(=O)c1ccc(N(C)C)cc1)C(=O)N1CCN(CCCOc2ccc(-c3noc(CC4CCCC4)n3)c(F)c2)CC1 [Example 180, N-{(1R)-2-[4-(3-{4-[5-(cyclopentylmethyl)-1,2,4-oxadiazol-3-yl]-3-fluorophenoxy}propyl)-1-piperazinyl]-1-methyl-2-oxoethyl}-4-(dimethylamino)benzamide]
1.67 | C[C@@H](NC(=O)c1cccnc1)C(=O)N1CCN(CCCOc2ccc(-c3noc(CC4CCCC4)n3)c(F)c2)CC1 [Example 181, N-{(1R)-2-[4-(3-{4-[5-(cyclopentylmethyl)-1,2,4-oxadiazol-3-yl]-3-fluorophenoxy}propyl)-1-piperazinyl]-1-methyl-2-oxoethyl}nicotinamide]
2.78 | C[C@@H](NC(=O)c1ccccc1Cl)C(=O)N1CCN(CCCOc2ccc(-c3noc(CC4CCCC4)n3)c(F)c2)CC1 [Example 182, 2-chloro-N-{(1R)-2-[4-(3-{4-[5-(cyclopentylmethyl)-1,2,4-oxadiazol-3-yl]-3-fluorophenoxy}propyl)-1-piperazinyl]-1-methyl-2-oxoethyl}benzamide]
2.72 | C[C@@H](NC(=O)c1ccc2c(c1)OCO2)C(=O)N1CCN(CCCOc2ccc(-c3noc(CC4CCCC4)n3)c(F)c2)CC1 [Example 183]
10.5 | CC(C)Oc1ccc(C(=O)N[C@H](C)C(=O)N2CCN(CCCOc3ccc(-c4noc(CC5CCCC5)n4)c(F)c3)CC2)cc1 [Example 184, N-{(1R)-2-[4-(3-{4-[5-(cyclopentylmethyl)-1,2,4-oxadiazol-3-yl]-3-fluorophenoxy}propyl)-1-piperazinyl]-1-methyl-2-oxoethyl}-4-isopropoxybenzamide]
3.28 | COc1ccc(C(=O)N[C@H](C)C(=O)N2CCN(CCCOc3ccc(-c4noc(CC5CCCC5)n4)c(F)c3)CC2)cc1F [Example 185, N-{(1R)-2-[4-(3-{4-[5-(cyclopentylmethyl)-1,2,4-oxadiazol-3-yl]-3-fluorophenoxy}propyl)-1-piperazinyl]-1-methyl-2-oxoethyl}-3-fluoro-4-methoxybenzamide]
8.82 | C[C@@H](NC(=O)c1ccc(C(=O)O)cc1)C(=O)N1CCN(CCCOc2ccc(-c3noc(CC4CCCC4)n3)c(F)c2)CC1 [Example 186, 4-[({(1R)-2-[4-(3-{4-[5-(cyclopentylmethyl)-1,2,4-oxadiazol-3-yl]-3-fluorophenoxy}propyl)-1-piperazinyl]-1-methyl-2-oxoethyl}amino)carbonyl]benzoic acid]
26.2 | Cc1cccc(-c2nc(-c3ccc(OCCCN4CCN(C(=O)[C@@H](C)NC(=O)c5cccs5)CC4)cc3F)no2)c1 [Example 187, N-{(1R)-2-[4-(3-{3-fluoro-4-[5-(3-methylphenyl)-1,2,4-oxadiazol-3-yl]phenoxy}propyl)-1-piperazinyl]-1-methyl-2-oxoethyl}-2-thiophenecarboxamide]
4.23 | C[C@@H](NC(=O)c1cccs1)C(=O)N1CCN(CCCOc2ccc(-c3noc(-c4cccc(C#N)c4)n3)c(F)c2)CC1 [Example 188, N-{(1R)-2-[4-(3-{4-[5-(3-cyanophenyl)-1,2,4-oxadiazol-3-yl]-3-fluorophenoxy}propyl)-1-piperazinyl]-1-methyl-2-oxoethyl}-2-thiophenecarboxamide]
51.3 | C[C@@H](NC(=O)c1cccs1)C(=O)N1CCN(CCCOc2ccc(-c3noc(-c4cc(Cl)cc(Cl)c4)n3)c(F)c2)CC1 [Example 189, N-{(1R)-2-[4-(3-{4-[5-(3,5-dichlorophenyl)-1,2,4-oxadiazol-3-yl]-3-fluorophenoxy}propyl)-1-piperazinyl]-1-methyl-2-oxoethyl}-2-thiophenecarboxamide]
7.69 | C[C@@H](NC(=O)c1cccs1)C(=O)N1CCN(CCCOc2ccc(-c3noc(CCC(=O)N4CCCC4)n3)c(F)c2)CC1 [Example 190, N-((1R)-2-{4-[3-(3-fluoro-4-{5-[3-oxo-3-(1-pyrrolidinyl)propyl]-1,2,4-oxadiazol-3-yl}phenoxy)propyl]-1-piperazinyl}-1-methyl-2-oxoethyl)-2-thiophenecarboxamide]
15 | CCOC(=O)c1nc(-c2ccc(OCCCN3CCN(C(=O)[C@@H](C)NC(=O)c4cccs4)CC3)cc2F)no1 [Example 191, Ethyl 3-{2-fluoro-4-[3-(4-{(2R)-2-[(2-thienylcarbonyl)amino]propanoyl}-1-piperazinyl)propoxy]phenyl}-1,2,4-oxadiazole-5-carboxylate]
1 | Cc1ccccc1C(=O)N[C@H](C)C(=O)N1CCN(CCCOc2ccc(C(=O)C3CC3)cc2)CC1 [Example 192, N-[(1R)-2-(4-{3-[4-(cyclopropylcarbonyl)phenoxy]propyl}-1-piperazinyl)-1-methyl-2-oxoethyl]-2-methylbenzamide]
